Assay results taken from PubChem BioAssay (NCI).
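Values below derive from 48-hour exposures of cells grown in 96-well plates, with endpoints linearly interpolated between the two concentrations bracketing the appropriate inhibition level. TGI denotes the concentration required for complete inhibition of growth.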

Tests used:
Test in all cases: DTP human tumour cell line panel, 48 h
CCRF-CEM leukemia = system: CCRF-CEM leukemia
NCI-H522 lung = system: NCI-H522 lung
OVCAR-4 ovarian = system: OVCAR-4 ovarian
SK-MEL-5 melanoma = system: SK-MEL-5 melanoma
SN12C renal = system: SN12C renal
TK-10 renal = system: TK-10 renal
UACC-62 melanoma = system: UACC-62 melanoma

Row | SMILES | TGI (CCRF-CEM leukemia) | TGI (NCI-H522 lung) | TGI (OVCAR-4 ovarian) | TGI (SK-MEL-5 melanoma) | TGI (SN12C renal) | TGI (TK-10 renal) | TGI (UACC-62 melanoma)
1 | CN(C)c1ccc(/C=C/C(=O)c2ccccc2)cc1Br | 62.7 µM | 31.4 µM | 34.5 µM | 39.1 µM | 45.2 µM | 74.2 µM | 32.3 µM
2 | COc1ccc2c(c1)CCc1cnn(C3OC(COC(C)=O)C(OC(C)=O)C(OC(C)=O)C3OC(C)=O)c1-2 (stereo unspecified) | 60.5 µM | 31.7 µM |  | > 100 µM | > 100 µM | > 100 µM | > 100 µM
3 | COC(=O)CCC(=O)CC(=O)C(=O)Nc1ccc(F)cc1 | > 100 µM | > 100 µM | > 100 µM | > 100 µM | > 100 µM | > 100 µM | > 100 µM
4 | COC(=O)CSc1ccccc1 | > 100 µM |  | > 100 µM | > 100 µM | > 100 µM | > 100 µM | > 100 µM
5 | CNc1nnnn1C1OC(CO)C(O)C1O (stereo unspecified) | > 100 µM | > 100 µM |  | > 100 µM | > 100 µM | > 100 µM | > 100 µM
6 | C[C@]12CCC3[C@@H](C[C@H]4OC(=O)[C@@]35CCC(=O)C=C45)C1CCC2=O (stereo partly specified) | > 100 µM | > 100 µM |  | > 100 µM | > 100 µM | > 100 µM | 
7 | Cc1cc2c(cc1C)N1Cc3c(ccc(C)c3C)N(C2)C1 (tested in a mixture with another compound) | > 100 µM | > 100 µM | > 100 µM | > 100 µM |  | > 100 µM | > 100 µM
8 | O=C1C(c2ccc([N+](=O)[O-])cc2)=[N+]([O-])c2ccccc21 | > 100 µM | 20.3 µM | 21.7 µM | 31.5 µM | 93.5 µM | 91.9 µM | 40.5 µM
9 | Cc1cc2cc(Cl)ccc2nc1C(=O)c1ccccc1 |  | > 100 µM | > 100 µM | > 100 µM | > 100 µM | > 100 µM | > 100 µM
10 | O=C(Nc1ccc(Cl)c(Cl)c1)C(=O)Nn1c(=S)[nH]c2ccccc2c1=O | > 100 µM | > 100 µM | > 100 µM | > 100 µM | > 100 µM | > 100 µM | > 100 µM
11 | O=C1OC(c2ccccc2)C2CC3CC4(CCC3CN12)OCCO4 (stereo unspecified) | > 100 µM | 1.57 µM | > 100 µM | > 100 µM | > 100 µM | > 100 µM | > 100 µM
12 | O=c1oc2c3ccc4ccccc4c3n(CCN3CCOCC3)c2c2ccccc12 | 15.2 µM | > 100 µM | > 100 µM |  |  | > 100 µM | > 100 µM
13 | COc1ccc(CN2C(=O)C(Cc3cc(OC)c(OC)c(C)c3OC)N(C(=O)OC(C)C)C(=O)/C2=C/c2cc(OC)c(OC)c(C)c2OC)cc1 (stereo unspecified) | > 100 µM | > 100 µM | > 100 µM | > 100 µM | > 100 µM | > 100 µM | > 100 µM
14 | CN(C)c1ccccc1CC(c1c[nH]c2ccccc12)c1c[nH]c2ccccc12 | 26.6 µM | 26.1 µM | 21.1 µM | 28.8 µM | 12.7 µM | 29.9 µM | 27.6 µM
15 | COc1ccc(NC(=O)CC/C(CC(=O)c2ccccc2Cl)=N\Nc2nnc(C)n2N)cc1 | > 100 µM |  | > 100 µM |  | > 100 µM | > 100 µM | > 100 µM
16 | COCC1C(=O)c2cc3c(cc2C12C=CC1(C=C2)OCCO1)OCO3 (stereo unspecified) | 4.38 µM | 3.96 µM | 27.4 µM |  | 22.9 µM | 34.9 µM | 24.6 µM
17 | Cc1cc(C)nc(NS(=O)(=O)c2ccc(NC(=O)c3cccc4c(Nc5ccc(S(=O)(=O)Nc6nc(C)cc(C)n6)cc5)c5ccccc5nc34)cc2)n1 | 69.6 µM | 32.8 µM | 64.1 µM | 36.6 µM | 41.1 µM | 73.3 µM | 57.3 µM
18 | Nc1nc(=O)n(C2CC(O)C(O)C(CO)O2)cc1F (stereo unspecified) | > 100 µM | > 100 µM | > 100 µM |  | > 100 µM | > 100 µM | > 100 µM
19 | COc1ccc(C(=O)/C(=N/Nc2ccccc2)c2ccc(OC)cc2)cc1 |  | > 100 µM | > 100 µM | > 100 µM | > 100 µM | > 100 µM | > 100 µM
20 | N#Cc1ccc(/C=N\N2C(=O)c3ccccc3C2=O)cc1 | > 100 µM |  | > 100 µM | > 100 µM | > 100 µM | > 100 µM | > 100 µM
21 | [N-]=[N+]=Nc1ccccc1-[n+]1noc([O-])c1Br | > 100 µM | > 100 µM | > 100 µM | > 100 µM | > 100 µM | > 100 µM | > 100 µM
22 | COc1ccc2nc3cc(Cl)ccc3c(NCCC(=O)OCC(O)C(O)C(O[C@H](C)C(=O)NC(C)C(=O)NC(CCC(N)=O)C(=O)OCc3ccccc3)C(C=O)NC(C)=O)c2c1 (stereo partly specified) | > 100 µM | 28 µM | 34.3 µM | 30.2 µM | 31.4 µM | 46.2 µM | 34 µM
23 | Cn1c(=O)nc2n(-c3ccc(F)cc3)c3ccccc3nc-2c1=O | 63.7 µM | 35.4 µM | 27.8 µM | 25.8 µM | 56.6 µM | 89.1 µM | 25 µM
